Data from patent US20260240854A1, “COMBINATIONS OF KRAS INHIBITOR AND ATR INHIBITOR FOR THE TREATMENT OF CANCER” (ASTRAZENECA AB, priority 2023, published 2026).

Tested on: CT26^G12C murine colon carcinoma cells
Experiment: Anti-tumor study, CT26^G12C tumors grown subcutaneously in immunocompetent BALB/c mice
Format: in vivo
Details: for Survival rate compared to the control group / Tumor return: Example 1, study end day 54
Description: All pathogen-free animals used in the studies below were housed in a controlled, pathogen-free environment with the following conditions: temperature (19-23° C.), humidity (55% 10%), photoperiod (12 h light/dark cycle), and air exchange. Animals were housed in individually vented cages, with food and water provided ad libitum.
Following testing materials were used for the preclinical, in vivo studies below: vehicle (0.5% HPMC/0.1% Tween 80), AZD4625 (0.5% HPMC/0.1% Tween 80), Compound of Formula IV (0.5% HPMC/0.1% Tween 80) and AZD6738 (10% DMSO/40% PG/50% WFI). For the monotherapies, the vehicle and the inhibitors were dosed orally in a volume of 0.05-0.1 mL/10 g. For the combination therapies, AZD4625 or Compound of Formula IV were dosed 4 or 2 hours after the AM dose of AZD6738.
Tumors were measured three times a week by caliper and the volumes were calculated using elliptical formula (pi/6×width×width×length). Animal bodyweight and tumor condition were also recorded for the duration of the study. Subject mice remained on study until tumor size reached 1.5 cm^3 for anti-tumor studies and 0.7 cm^3 for the rechallenge study, clinical signs were observed, or until the study end date.
(§1) For the study, CT26^G12C murine colon carcinoma cells, engineered to express the KRAS^G12C mutation, were grown subcutaneously in BALB/c mice with an intact immune system. To prepare the subject mice, 5×10^5 and 5×10^4 CT26^G12C (G12C clone P5E6) cells were implanted subcutaneously into the right flank of female BALB/c mice (Envigo UK, Strain ID: HSD-162) or female nude-Foxn1nu mice (Envigo UK, Strain ID: HSD-069), respectively. Once a mean volume of approximately 0.2 cm^3 tumor formed, subject mice were randomized into relevant treatment and control groups and treated with vehicle control, AZD4625 or AZD6738 in monotherapy, or in combination therapy for 4 weeks. AZD4625 was dosed daily and AZD6738 was dosed twice daily on a 7 day-on, 7 day-off schedules for the treatment period (FIG. 1A). Tumor growth and bodyweights of animals were monitored during and post-treatment. Subject mice remained on study until tumor size reached 1.5 cm^3, clinical signs were observed, or to the study end date (day 54).
as §1, with “vehicle control, AZD4625, Compound of Formula IV, or AZD6738” for “vehicle control, AZD4625 or AZD6738”, “monotherapy, or AZD4625 and AZD6738 or Compound of Formula IV and AZD6738 in combination” for “monotherapy, or in combination”, “weeks. AZD4625 and Compound of Formula IV were dosed daily” for “weeks. AZD4625 was dosed daily”, “period (FIG. 2A). Tumor growth” for “period (FIG. 1A). Tumor growth”, “study end date. Mice in the AZD4625 monotherapy and combination groups were monitored up to 65 days post-implant while mice in the Compound of Formula IV monotherapy and combination groups were monitored up to 119 days post-implant.” for “study end date (day 54).”
CT26^G12C murine colon carcinoma cells were grown subcutaneously in BALB/c mice with an intact immune system as described in Examples 1 and 2. […] Tumor growth and body weights of animals were monitored during and post-treatment. Subject mice remained on study until tumor size reached 1.5 cm^3, clinical signs were observed, or to the study end.

[1] = Example 1, 4 weeks oral treatment, compared to control group, FIG. 1B
[2] = Example 2, 4 weeks oral treatment, FIG. 2B
[3] = Example 5, 4 weeks treatment, compared to vehicle or to KRAS^G12C inhibitor monotherapy, FIG. 5A

Structure (SMILES) | Tumor growth response [1] | Survival rate compared to the control group | Tumor return | Tumor growth response [2] | Tumors returned after drug cessation (Example 2, monitored up to 119 days post-implant) | Tumor return after drug cessation (Example 5) | Tumor growth response [3] | Survival rates (Example 5, FIG. 5B)
C=CC(=O)N1C[C@@H]2CCOc3c(Cl)c(-c4c(O)cccc4F)c(F)c4ncnc(c34)N2C[C@H]1C [AZD4625, 1-[(6aS,9R)-3-chloro-1-fluoro-2-(2-fluoro-6-hydroxyphenyl)-9-methyl-5,6,6a,7,9,10-hexahydro-8H-pyrazino[1′,2′:5,6][1,5]oxazocino[4,3,2-de]quinazolin-8-yl]prop-2-en-1-one] | delayed tumor growth | extended survival rate | most tumors ultimately returned | tumor regression |  |  |  | 
C=CC(=O)N1CCN2Cc3cc(C#CC)c(-c4c(O)cccc4Cl)c(F)c3OC[C@H]2C1 [Compound of Formula IV, 1-[(12aR)-9-(2-chloro-6-hydroxyphenyl)-10-fluoro-8-(prop-1-yn-1-yl)-3,4,12,12a-tetrahydro-6H-pyrazino[2,1-c][1,4]benzoxazepin-2(1H)-yl]prop-2-en-1-one] |  |  |  | tumor regression | 8 out of 9 |  |  | 
C=CC(=O)N1CCN(c2nc(=O)n(-c3c(C)ccnc3C(C)C)c3nc(-c4c(O)cccc4F)c(F)cc23)[C@@H](C)C1 (atropisomer, axis not shown) [sotorasib, reference compound] |  |  |  |  |  | most tumors returning after drug cessation | initial tumor growth delay | increased survival rates
C[C@@H]1COCCN1c1cc(C2([S@](C)(=N)=O)CC2)nc(-c2ccnc3[nH]ccc23)n1 [AZD6738, 4-{4-[(3R)-3-methylmorpholin-4-yl]-6-[1-((R)—S-methylsulfonimidoyl)cyclopropyl]pyrimidin-2-yl}-1H-pyrrolo[2,3-b]pyridine] | delayed tumor growth | extended survival rate | most tumors ultimately returned |  |  |  | no or weak activity | 
